# Test results as given in patent publication US20250236639A1, “NEUROACTIVE STEROIDS AND COMPOSITIONS THEREOF” (Sage Therapeutics, Inc., priority 2019, published 2025).
# Molecular target: GABAA receptor
# Assay: Steroid inhibition of [35S]-TBPS binding, rat brain cortical membranes
# Settings: 3 nM [35S]-TBPS, in the presence of 5 mM GABA
# Method: [^35S]-t-Butylbicyclophosphorothionate (TBPS) binding assays using rat brain cortical membranes in the presence of 5 mM GABA has been described (Gee et al, J. Pharmacol. Exp. Ther. 1987, 241, 346-353; Hawkinson et al, Mol. Pharmacol. 1994, 46, 977-985; Lewin, A. H et al., Mol. Pharmacol. 1989, 35, 189-194).
# Briefly, cortices are rapidly removed following decapitation of carbon dioxide-anesthetized Sprague-Dawley rats (200-250 g). The cortices are homogenized in 10 volumes of ice-cold 0.32 M sucrose using a glass/teflon homogenizer and centrifuged at 1500×g for 10 min at 4° C. The resultant supernatants are centrifuged at 10,000×g for 20 min at 4° C. to obtain the P2 pellets. The P2 pellets are resuspended in 200 mM NaCl/50 mM Na—K phosphate pH 7.4 buffer and centrifuged at 10,000×g for 10 min at 4° C. This washing procedure is repeated twice and the pellets are resuspended in 10 volumes of buffer. Aliquots ([…]) of the membrane suspensions are incubated with 3 nM [^35S]-TBPS and […] aliquots of test drug dissolved in dimethyl sulfoxide (DMSO) (final 0.5%) in the presence of 5 mM GABA. The incubation is brought to a final volume of 1.0 mL with buffer. Nonspecific binding is determined in the presence of […] and ranged from 15 to 25%. Following a 90 min incubation at room temp, the assays are terminated by filtration through glass fiber filters (Schleicher and Schuell No. 32) using a cell harvester (Brandel) and rinsed three times with ice-cold buffer. Filter bound radioactivity is measured by liquid scintillation spectrometry. Non-linear curve fitting of the overall data for each drug averaged for each concentration is done using Prism (GraphPad). […] The concentration of test compound producing 50% inhibition (IC50) of specific binding and the maximal extent of inhibition (Imax) are determined for the individual experiments with the same model used for the overall data and then the means±SEM.s of the individual experiments are calculated.
# Various compounds are or can be screened to determine their potential as modulators of [^35S]-TBPS binding in vitro. These assays are or can be performed in accordance with the above
row,Structure (SMILES),IC50
1,"COC[C@@H]1C[C@H]2[C@H](CC[C@@H]3[C@@H]2CC[C@@]2(C)[C@H]3CC[C@@H]2[C@](C)(O)Cn2cc(C#N)cn2)C[C@]1(C)O [Compound 58A, 1-((S)-2-hydroxy-2-((2S,3S,5R,8R,9R,10S,13S,14S,17S)-3-hydroxy-2-(methoxymethyl)-3,13-dimethylhexadecahydro-1H-cyclopenta[a]phenanthren-17-yl)propyl)-1H-pyrazole-4-carbonitrile]",< 100 nM
2,"C[C@@]1(O)CC[C@H]2[C@H](CC[C@@H]3[C@@H]2CC[C@]2(C)[C@@H](C(F)(F)Cn4cc(C#N)cn4)CC[C@@H]32)C1 [Compound 21, 1-(2,2-difluoro-2-((3R,5R,8R,9R,10S,13S,14S,17S)-3-hydroxy-3,13-dimethylhexadecahydro-1H-cyclopenta[a]phenanthren-17-yl)ethyl)-1H-pyrazole-4-carbonitrile]",< 100 nM
3,"CC(C)(Cn1cc(C#N)cn1)[C@H]1CC[C@H]2[C@@H]3CC[C@@H]4C[C@](C)(O)CC[C@@H]4[C@H]3CC[C@]12C [Compound 41, 1-(2-((3R,5R,8R,9R,10S,13S,14S,17S)-3-hydroxy-3,13-dimethylhexadecahydro-1H-cyclopenta[a]phenanthren-17-yl)-2-methylpropyl)-1H-pyrazole-4-carbonitrile]",< 100 nM
4,"CCC[C@@]1(O)CC[C@H]2[C@H](CC[C@@H]3[C@@H]2CC[C@@]2(C)[C@H]3CC[C@@H]2[C@@](C)(O)Cn2cc(C#N)cn2)C1 [Compound 8, 1-((R)-2-hydroxy-2-((3R,5R,8R,9R,10S,13S,14S,17S)-3-hydroxy-13-methyl-3-propylhexadecahydro-1H-cyclopenta[a]phenanthren-17-yl)propyl)-1H-pyrazole-4-carbonitrile]",100 to 1000 nM
5,"CCC[C@@]1(O)CC[C@H]2[C@H](CC[C@@H]3[C@@H]2CC[C@@]2(C)[C@H]3CC[C@@H]2[C@@](C)(Cn2cc(C#N)cn2)OC)C1 [Compound 36, 1-((S)-2-((3R,5R,8R,9R,10S,13S,14S,17S)-3-hydroxy-13-methyl-3-propylhexadecahydro-1H-cyclopenta[a]phenanthren-17-yl)-2-methoxypropyl)-1H-pyrazole-4-carbonitrile]",100 to 1000 nM
6,"CCC[C@@]1(O)CC[C@H]2[C@H](CC[C@@H]3[C@@H]2CC[C@@]2(C)[C@H]3CC[C@@H]2[C@](C)(Cn2cc(C#N)cn2)OC)C1 [Compound 37, 1-((R)-2-((3R,5R,8R,9R,10S,13S,14S,17S)-3-hydroxy-13-methyl-3-propylhexadecahydro-1H-cyclopenta[a]phenanthren-17-yl)-2-methoxypropyl)-1H-pyrazole-4-carbonitrile]",100 to 1000 nM
7,"CCC[C@@]1(O)CC[C@@]2(C)[C@H](CC[C@@H]3[C@@H]2CC[C@@]2(C)[C@H]3CC[C@@H]2[C@](C)(O)Cn2cc(C#N)cn2)C1 [Compound 26, 1-((S)-2-hydroxy-2-((3R,5R,8R,9S,10S,13S,14S,17S)-3-hydroxy-10,13-dimethyl-3-propylhexadecahydro-1H-cyclopenta[a]phenanthren-17-yl)propyl)-1H-pyrazole-4-carbonitrile]",< 100 nM
8,"CC[C@]12CC[C@@](C)(O)C[C@H]1CC[C@H]1[C@@H]3CC[C@H]([C@@](C)(O)Cn4cc(C#N)cn4)[C@@]3(C)CC[C@@H]12 [Compound 4, 1-((R)-2-((3R,5R,8S,9S,10S,13S,14S,17S)-10-ethyl-3-hydroxy-3,13-dimethylhexadecahydro-1H-cyclopenta[a]phenanthren-17-yl)-2-hydroxypropyl)-1H-pyrazole-4-carbonitrile]",< 100 nM
9,"C[C@@]1(O)CC[C@H]2[C@H](CC[C@@H]3[C@@H]2CC[C@@]2(C)[C@H]3CC[C@@H]2[C@](C)(C#N)Cn2cc(C#N)cn2)C1 [Compound 57, 1-((S)-2-cyano-2-((3R,5R,8R,9R,10S,13S,14S,17S)-3-hydroxy-3,13-dimethylhexadecahydro-1H-cyclopenta[a]phenanthren-17-yl)propyl)-1H-pyrazole-4-carbonitrile]",< 100 nM
10,"CO[C@@H]1C[C@H]2[C@H](CC[C@@H]3[C@@H]2CC[C@@]2(C)[C@H]3CC[C@@H]2[C@](C)(O)Cn2cc(C#N)cn2)C[C@]1(C)O [Compound 60, 1-((S)-2-hydroxy-2-((2R,3S,5R,8R,9R,10S,13S,14S,17S)-3-hydroxy-2-methoxy-3,13-dimethylhexadecahydro-1H-cyclopenta[a]phenanthren-17-yl)propyl)-1H-pyrazole-4-carbonitrile]",< 100 nM
11,"C[C@@]1(O)CC[C@H]2[C@H](CC[C@@H]3[C@@H]2CC[C@]2(C)[C@@H](C4(Cn5cc(C#N)cn5)COC4)CC[C@@H]32)C1 [Compound 28, 1-((3-((3R,5R,8R,9R,10S,13S,14S,17S)-3-hydroxy-3,13-dimethylhexadecahydro-1H-cyclopenta[a]phenanthren-17-yl)oxetan-3-yl)methyl)-1H-pyrazole-4-carbonitrile]",< 100 nM
12,"CO[C@@H]1C[C@H]2[C@H](CC[C@@H]3[C@@H]2CC[C@@]2(C)[C@H]3CC[C@@H]2[C@@](C)(O)Cn2cc(C#N)cn2)C[C@]1(C)O [Compound 61, 1-((R)-2-hydroxy-2-((2R,3S,5R,8R,9R,10S,13S,14S,17S)-3-hydroxy-2-methoxy-3,13-dimethylhexadecahydro-1H-cyclopenta[a]phenanthren-17-yl)propyl)-1H-pyrazole-4-carbonitrile]",100 to 1000 nM
13,"C[C@@H]1C[C@H]([C@](C)(O)Cn2cc(C#N)cn2)[C@@]2(C)CC[C@H]3[C@@H](CC[C@@H]4C[C@](C)(O)CC[C@@H]43)[C@H]12 [Compound 48, 1-((S)-2-hydroxy-2-((3R,5R,8R,9R,10S,13S,14S,15R,17S)-3-hydroxy-3,13,15-trimethylhexadecahydro-1H-cyclopenta[a]phenanthren-17-yl)propyl)-1H-pyrazole-4-carbonitrile]",< 100 nM
14,"CCOC[C@@]1(O)CC[C@H]2[C@H](CC[C@@H]3[C@@H]2CC[C@@]2(C)[C@H]3CC[C@@H]2[C@@](C)(O)Cn2cc(C#N)cn2)C1 [Compound 16, 1-((R)-2-((3R,5R,8R,9R,10S,13S,14S,17S)-3-(ethoxymethyl)-3-hydroxy-13-methylhexadecahydro-1H-cyclopenta[a]phenanthren-17-yl)-2-hydroxypropyl)-1H-pyrazole-4-carbonitrile]",< 100 nM
15,"CC[C@@]1(O)CC[C@H]2[C@H](CC[C@@H]3[C@@H]2CC[C@@]2(C)[C@H]3CC[C@@H]2[C@@](C)(O)Cn2cc(C#N)cn2)C1 [Compound 12, 1-((R)-2-((3R,5R,8R,9R,10S,13S,14S,17S)-3-ethyl-3-hydroxy-13-methylhexadecahydro-1H-cyclopenta[a]phenanthren-17-yl)-2-hydroxypropyl)-1H-pyrazole-4-carbonitrile]",100 to 1000 nM
16,"CC[C@@]1(O)CC[C@H]2[C@@H](CC[C@@H]3[C@@H]2CC[C@@]2(C)[C@H]3CC[C@@H]2[C@@](C)(O)Cn2cc(C#N)cn2)C1 [Compound 14, 1-((R)-2-((3R,5S,8R,9R,10S,13S,14S,17S)-3-ethyl-3-hydroxy-13-methylhexadecahydro-1H-cyclopenta[a]phenanthren-17-yl)-2-hydroxypropyl)-1H-pyrazole-4-carbonitrile]",≥ 1000 nM
17,"COC[C@@]1(O)CC[C@H]2[C@@H](CC[C@@H]3[C@@H]2CC[C@@]2(C)[C@H]3CC[C@@H]2[C@@](C)(O)Cn2cc(C#N)cn2)C1 [Compound 20, 1-((R)-2-hydroxy-2-((3R,5S,8R,9R,10S,13S,14S,17S)-3-hydroxy-3-(methoxymethyl)-13-methylhexadecahydro-1H-cyclopenta[a]phenanthren-17-yl)propyl)-1H-pyrazole-4-carbonitrile]",100 to 1000 nM
18,"CC[C@H]1C[C@H]2[C@H](CC[C@@H]3[C@@H]2CC[C@@]2(C)[C@H]3CC[C@@H]2[C@](C)(O)Cn2cc(C#N)cn2)C[C@]1(C)O [Compound 34, 1-((S)-2-((2S,3S,5R,8R,9R,10S,13S,14S,17S)-2-ethyl-3-hydroxy-3,13-dimethylhexadecahydro-1H-cyclopenta[a]phenanthren-17-yl)-2-hydroxypropyl)-1H-pyrazole-4-carbonitrile]",< 100 nM
